From US7348301B2, “Lysozyme-based method and composition to control the growth of microorganisms in aqueous systems” (Buckman Laboratories International, Inc., priority 2006, dated 2008)

Tests used:
[1] = system: Chlorella sp. (ATCC 7516); experiment: Evaluation of algaecidal activity (MIC, checkerboard synergy) against Chlorella sp.; format: cell-based; details: for MIC (ppm product): Chlorella sp. (ATCC 7516), 14 days at 24 C, 16 h light/8 h darkness, enzyme alone; for [A]/MICA + [B]/MICB (Fractional Inhibitory Concentration Index, FIC): Chlorella sp., <1 denotes synergy
Description: (§1) A. Evaluation of Algaecidal Activity. This test method provides a technique for testing compounds for their effectiveness to inhibit (repress) algae growth.
(§2) Cell suspension from a culture grown in modified Allen's medium for 14 days or as needed to attain a desired cell mass of Chlorella sp. (ATCC 7516) or Phormidium faveolarum (UTEX 427). The inoculum is calibrated at 82% transmittance measured at 590 nanometers wavelength before inoculation.
(§3) Sterilize the medium in the autoclave for 20 minutes at 15 pounds pressure (121° C.). After autoclaving, cool medium to 45-50° C. and dispense 5 ml of medium per test tube, then add the compound and the inoculum.
(§4) Prepare a stock solution in water of the compound to be tested. The concentration of the stock solution is dependent on the largest dosage desired to be tested. Dilute the stock solution to obtain dosages smaller than that chosen for the stock solution. A maximum amount of 100 microliters of stock solution or the corresponding dilution should be added per test tube.
• Add 100 microliters of inoculum per test tube, per type of medium and type of inoculum. Incubation: • Place the test tubes containing the treatments in an incubator set at 24° C. Light is provided by plant growth fluorescent tubes set to provide 16 h of light and 8 h of darkness. […] The minimum inhibitory concentration (MIC) of the compound is the smallest dosage showing negative algae growth. Synergy Evaluation:
Synergy was measured by checkerboards dilutions (Yan and Hancock, 2001), in which one compound is diluted along the rows of test tubes and the other is diluted along the columns. This method focuses on looking for a reduction in the MIC of each component in the presence of the other.

[2] = system: Phormidium faveolarum (UTEX 427); experiment: Evaluation of algaecidal activity (MIC, checkerboard synergy) against Phormidium faveolarum; format: cell-based; details: <1 denotes synergy
Description: as §1, §2, §3, §4
• Add 100 microliters of inoculum per test tube, per type of medium and type of inoculum. Incubation: • Place the test tubes containing the treatments in an incubator set at 24° C. […]
Synergy was measured by checkerboards dilutions (Yan and Hancock, 2001), in which one compound is diluted along the rows of test tubes and the other is diluted along the columns. […]

Compound: Lysozyme Chloride [Lysozyme Chloride (MP Biomedicals)]
- MIC (ppm product) [1]: 0.1-0.4 ppm product

Compound: Lysozyme Chloride [Lysozyme Chloride (NutriScience)]
- MIC (ppm product) [1]: 0.4-0.7 ppm product

Compound: Lysozyme [Lysozyme (Sigma)]
- MIC (ppm product) [1]: 0.4-0.7 ppm product

Compound: [Cl-].[Na+] [Sodium Chloride]
- [A]/MICA + [B]/MICB (Fractional Inhibitory Concentration Index, FIC) ([1]; Example 10, 14 days): 1.000
- [A]/MICA + [B]/MICB (Fractional Inhibitory Concentration Index, FIC) ([2]; Example 11, 14 days): 1.00

Compound: Benzalkonium Chloride [reference compound]
- [A]/MICA + [B]/MICB (Fractional Inhibitory Concentration Index, FIC) ([1]; Example 1, 18 days): 1.000
- [A]/MICA + [B]/MICB (Fractional Inhibitory Concentration Index, FIC) ([2]; Example 2, 18 days): 1.00
